Biological target: T1, Type-1 angiotensin II receptor (Oryctolagus cuniculus) (UniProt P34976)
T1 sequence (whole entry): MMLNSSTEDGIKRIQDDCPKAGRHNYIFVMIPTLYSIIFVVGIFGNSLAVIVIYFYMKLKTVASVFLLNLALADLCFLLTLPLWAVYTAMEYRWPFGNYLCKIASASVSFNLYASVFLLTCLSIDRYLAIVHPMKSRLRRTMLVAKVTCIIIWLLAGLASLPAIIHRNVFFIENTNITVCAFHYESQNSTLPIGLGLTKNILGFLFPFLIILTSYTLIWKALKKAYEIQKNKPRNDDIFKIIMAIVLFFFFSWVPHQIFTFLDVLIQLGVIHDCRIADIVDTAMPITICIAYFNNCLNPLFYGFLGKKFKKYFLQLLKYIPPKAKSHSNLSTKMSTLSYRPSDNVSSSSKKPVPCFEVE
Assay: Angiotensin II receptor, type 1 antagonist activity in rabbit isolated thoracic aorta
Assay type: functional, tissue-based

Row | SMILES | pKB
1 | CCCCc1nc(Cl)c(CO)n1Cc1ccc(-c2ccccc2-c2nnn[nH]2)cc1 | 8.4
2 | CCCCc1nc(Cl)c(C(=O)O)n1Cc1ccc(-c2ccccc2-c2nn[nH]n2)cc1 | 10.6
3 | CCCCc1nc(Cl)c(CO)n1Cc1ccc(-c2ccccc2C(=O)O)cc1 | 6.9
